Experiments:
Type in all cases: in vivo, C57BL/6 mice
Alpha-SMA mRNA = assay: Liver gene expression by quantitative RT-PCR: Alpha-SMA; settings: any doses of MN-001 (10, 30, 100 mg/kg oral once daily, 8 to 12 weeks of age)
Method: (§1) Total RNA was extracted from liver samples using RNAiso (Takara Bio, Japan) according to the manufacturer's instructions. One μg of RNA was reverse-transcribed using a reaction mixture containing 4.4 mM MgCl2 (F. Hoffmann-La Roche, Switzerland), 40 U RNase inhibitor (Toyobo, Japan), 0.5 mM dNTP (Promega, USA), 6.28 μM random hexamer (Promega), 5× first strand buffer (Promega), 10 mM dithiothreitol (Invitrogen, USA) and 200 U MMLV-RT (Invitrogen) in a final volume of 20 μL. The reaction was carried out for 1 hour at 37° C., followed by 5 minutes at 99° C. Real-time PCR was performed using real-time PCR DICE and SYBR premix Taq (Takara Bio). To calculate the relative mRNA expression level, the expression of each gene was normalized to that of reference gene 36B4 (gene symbol: Rp1p0). Information of PCR-primer sets are described in Table 1. [table] […] P values<0.05 were considered statistically significant. […] Results were expressed as mean±SD.

TIMP-1 mRNA = assay: Liver gene expression by quantitative RT-PCR: TIMP-1; settings: 10 mg/kg oral once daily, 8 to 12 weeks of age (MN-001-low; Telmisartan)
Method: as §1

[1] = tested on: STAM Model of Advanced Non-Alcoholic Steatohepatitis; assay: Alpha-SMA immunostaining, α-SMA-positive area in STAM mice; settings: for Alpha-SMA-positive area: mean ± SD
Method: (§2) For immunohistochemistry, sections were cut from frozen liver tissues embedded in Tissue-Tek O.C.T. compound and fixed in acetone. Endogenous peroxidase activity was blocked using 0.03% H2O2 for 5 minutes, followed by incubation with Block Ace (Dainippon Sumitomo Pharma, Japan) for 10 minutes. The sections were incubated with a 200-fold dilution of anti-α-SMA (Epitomics, USA) or anti-F4/80 antibody (BMA Biomedicals, Switzerland) 1 hour at room temperature. […] For quantitative analysis of fibrosis area, inflammation area, and semi-quantification of α-SMA, bright field images of Sirius red-stained, F4/80- and α-SMA-immunostained sections were captured around the central vein using a digital camera (DFC280: Leica Microsystems, Germany) at 200-fold magnification, and the positive areas in 5 fields/section were measured using ImageJ software (National Institute of Health, USA). […] P values<0.05 were considered statistically significant. […] Results were expressed as mean±SD.

[2] = tested on: STAM Model of Advanced Non-Alcoholic Steatohepatitis; assay: HE staining and NAFLD Activity Score (NAS) in STAM mice; design: key to NAS (NAFLD Activity Score): NAS scored per Kleiner criteria (Hepatology 2005); settings: for NAS (NAFLD Activity Score): mean ± SD; for Number of mice with Lobular inflammation score 0: score 0 = No foci; for Number of mice with Steatosis score 1: score 1 = 5-33%; for Number of mice with Lobular inflammation score 1: score 1 = <2 foci/200x; for Number of mice with Hepatocyte ballooning score 1: score 1 = Few balloon cells; for Number of mice with Lobular inflammation score 2: score 2 = 2-4 foci/200x; for Number of mice with Steatosis score 2: score 2 = >33-66%; for Number of mice with Hepatocyte ballooning score 2: score 2 = Many cells/prominent ballooning
Method: STAM™ is a useful model for advanced non-alcoholic steatohepatitis (advanced NASH), symptoms thereof, and related liver disorders, created by the combination of chemical and dietary interventions in C57BL/6 mice. In this example, after inducing NASH, it was allowed to reach an advanced stage, and the mice were treated at 8-12 weeks. […] Vehicle, MN-001, and Telmisartan were administered by oral route in a volume of 10 mL/kg. […] For HE staining, sections were cut from paraffin blocks of liver tissue prefixed in Bouin's solution and stained with Lillie-Mayer's Hematoxylin (Muto Pure Chemicals, Japan) and eosin solution (Wako Pure Chemical Industries). NAFLD Activity score (NAS) was calculated according to the criteria of Kleiner (Kleiner D E. et al., Hepatology, 2005; 41:1313). To visualize collagen deposition, Bouin's fixed liver sections were stained using picro-Sirius red solution (Waldeck, Germany). […] P values<0.05 were considered statistically significant. […] Results were expressed as mean±SD. Ten NASH mice were orally administered vehicle supplemented with MN-001 at a dose of 10 mg/kg once daily from 8 to 12 weeks of age. Ten NASH mice were orally administered vehicle supplemented with MN-001 at a dose of 30 mg/kg once daily from 8 to 12 weeks of age. Ten NASH mice were orally administered vehicle supplemented with MN-001 at a dose of 100 mg/kg once daily from 8 to 12 weeks of age. Ten NASH mice were orally administered pure water supplemented with Telmisartan at a dose of 10 mg/kg once daily from 8 to 12 weeks of age.

Five-Lipoxygenase mRNA = assay: Liver gene expression by quantitative RT-PCR: Five-Lipoxygenase
Method: as §1

Collagen Type 1 mRNA = assay: Liver gene expression by quantitative RT-PCR: Collagen Type 1; settings: 100 mg/kg oral once daily, 8 to 12 weeks of age (MN-001-high)
Method: as §1

[3] = tested on: STAM Model of Advanced Non-Alcoholic Steatohepatitis; assay: Sirius red staining, percentage of fibrosis area in STAM mice; settings: for Sirius red-positive area (fibrosis area): mean ± SD
Method: For HE staining, sections were cut from paraffin blocks of liver tissue prefixed in Bouin's solution and stained with Lillie-Mayer's Hematoxylin (Muto Pure Chemicals, Japan) and eosin solution (Wako Pure Chemical Industries). NAFLD Activity score (NAS) was calculated according to the criteria of Kleiner (Kleiner D E. et al., Hepatology, 2005; 41:1313). To visualize collagen deposition, Bouin's fixed liver sections were stained using picro-Sirius red solution (Waldeck, Germany). For quantitative analysis of fibrosis area, inflammation area, and semi-quantification of α-SMA, bright field images of Sirius red-stained, F4/80- and α-SMA-immunostained sections were captured around the central vein using a digital camera (DFC280: Leica Microsystems, Germany) at 200-fold magnification, and the positive areas in 5 fields/section were measured using ImageJ software (National Institute of Health, USA). […] P values<0.05 were considered statistically significant. […] Results were expressed as mean±SD.

[4] = tested on: STAM Model of Advanced Non-Alcoholic Steatohepatitis; assay: F4/80 immunostaining, percentage of inflammation area in STAM mice; settings: for F4/80-positive area (inflammation area): mean ± SD
Method: as §2

[5] = 10 mg/kg oral once daily, 8 to 12 weeks of age (MN-001-low; Telmisartan)
[6] = 30 mg/kg oral once daily, 8 to 12 weeks of age (MN-001-middle)
[7] = 100 mg/kg oral once daily, 8 to 12 weeks of age (MN-001-high)
[8] = 10 mg/kg oral once daily, 8 to 12 weeks of age (MN-001-low n=10; Telmisartan n=9)
[9] = 30 mg/kg oral once daily, 8 to 12 weeks of age (MN-001-middle, n=10)
[10] = 100 mg/kg oral once daily, 8 to 12 weeks of age (MN-001-high, n=10)
[11] = all doses of MN-001 (10, 30, 100 mg/kg oral once daily, 8 to 12 weeks of age)
[12] = high dose, 100 mg/kg oral once daily, 8 to 12 weeks of age
[13] = middle dose, 30 mg/kg oral once daily, 8 to 12 weeks of age

CCCc1c(SCCCOc2ccc(C(C)=O)c(OCCCC(=O)O)c2CCC)ccc(C(C)=O)c1O [MN-001]
α-SMA mRNA expression levels compared with the Vehicle group (Alpha-SMA mRNA): no significant differences | TIMP-1 mRNA expression levels compared with the Vehicle group (TIMP-1 mRNA): significantly down-regulated | α-SMA-positive area compared with the Vehicle group [1, 5]: significantly decreased | α-SMA-positive area compared with the Vehicle group [1, 6]: no significant difference | α-SMA-positive area compared with the Vehicle group [1, 7]: significantly decreased | Alpha-SMA-positive area [1, 8]: 0.45 ± 0.11% | Alpha-SMA-positive area [1, 9]: 0.76 ± 0.19% | Alpha-SMA-positive area [1, 10]: 0.48 ± 0.21% | Hepatocellular ballooning and inflammatory cell infiltration in HE-stained liver sections [2, 11]: marked improvements | NAS compared with the Vehicle group [2, 11]: significantly decreased | Ballooning score [2, 12]: significantly reduced | NAS compared with the Vehicle group [2, 12]: significantly decreased | NAS (NAFLD Activity Score) [2, 8]: 3.6 ± 1.4 | NAS (NAFLD Activity Score) [2, 9]: 4.0 ± 0.9 | NAS (NAFLD Activity Score) [2, 10]: 3.1 ± 0.7 | Ballooning score [2, 13]: significantly reduced | NAS compared with the Vehicle group [2, 13]: significantly decreased | Number of mice with Steatosis score 0 ([2]; score 0 = <5%, 10 mg/kg oral once daily, 8 to 12 weeks of age (MN-001-low n=10; Telmisartan n=9)): 3 | Number of mice with Lobular inflammation score 0 [2, 8]: 2 | Number of mice with Lobular inflammation score 0 [2, 9]: 1 | Number of mice with Lobular inflammation score 0 [2, 10]: 4 | Number of mice with Steatosis score 1 [2, 8]: 6 | Number of mice with Steatosis score 1 [2, 9]: 7 | Number of mice with Steatosis score 1 [2, 10]: 9 | Number of mice with Lobular inflammation score 1 [2, 8]: 2 | Number of mice with Lobular inflammation score 1 [2, 9]: 6 | Number of mice with Lobular inflammation score 1 [2, 10]: 5 | Number of mice with Hepatocyte ballooning score 1 [2, 8]: 6 | Number of mice with Hepatocyte ballooning score 1 [2, 9]: 5 | Number of mice with Hepatocyte ballooning score 1 [2, 10]: 7 | Number of mice with Lobular inflammation score 2 [2, 8]: 6 | Number of mice with Lobular inflammation score 2 [2, 9]: 3 | Number of mice with Lobular inflammation score 2 [2, 10]: 1 | Number of mice with Steatosis score 2 [2, 8]: 1 | Number of mice with Steatosis score 2 [2, 9]: 3 | Number of mice with Steatosis score 2 [2, 10]: 1 | Number of mice with Hepatocyte ballooning score 2 [2, 8]: 4 | Number of mice with Hepatocyte ballooning score 2 [2, 9]: 5 | Number of mice with Hepatocyte ballooning score 2 [2, 10]: 3 | Five-Lipoxygenase mRNA expression levels compared with the Vehicle group (Five-Lipoxygenase mRNA; [5]): no significant differences | Five-Lipoxygenase mRNA expression levels compared with the Vehicle group (Five-Lipoxygenase mRNA; [6]): no significant differences | Five-Lipoxygenase mRNA expression levels compared with the Vehicle group (Five-Lipoxygenase mRNA; [7]): tended to decrease | Collagen Type 1 mRNA expression levels compared with the Vehicle group (Collagen Type 1 mRNA): tended to decrease | Fibrosis area compared with the Vehicle group [3, 5]: significantly decreased | Fibrosis area compared with the Vehicle group [3, 6]: tended to decrease | Fibrosis area compared with the Vehicle group [3, 7]: significantly decreased | Sirius red-positive area (fibrosis area) [3, 8]: 0.75 ± 0.40% | Sirius red-positive area (fibrosis area) [3, 9]: 0.95 ± 0.37% | Sirius red-positive area (fibrosis area) [3, 10]: 0.65 ± 0.28% | Inflammation area compared with the Vehicle group ([4]; any doses of MN-001 (10, 30, 100 mg/kg oral once daily, 8 to 12 weeks of age)): no significant differences | F4/80-positive area (inflammation area) [4, 8]: 6.47 ± 2.67% | F4/80-positive area (inflammation area) [4, 9]: 6.36 ± 1.59% | F4/80-positive area (inflammation area) [4, 10]: 5.14 ± 0.89%
